Data published in patent publication US10023591B2, “Heterocyclic derivatives and use thereof” (C&C RESEARCH LABORATORIES, priority 2014, dated 2018).
Read-outs that look alike come from different tables or passages of the source.

What was measured:
STAT3 = STAT3 reporter gene assay (luciferase), LNCaP stable cell line pSTAT3-TA-luc, IL-6 stimulation; assay type: cell-based, human
Experimental: 1-1) Experiment on the Inhibition of STAT3 Activity
A human prostate cancer cell line (LNCaP stable cell line; plasmid pSTAT3-TA-luc), which contains a stably operating STAT3 promoter, was cultured in RPMI1640 medium (Cat No. 11875, Life Technologies) containing 10% fetal bovine serum (FBS) (Cat No. SH30396, Thermo Scientific) and 150 μg/mL G-418 solution (Cat No. 04 727 894 001, Roche). The reporter gene assay using LNCaP stable cell line was performed in RPMI1640 medium containing 3% DCC-FBS without G-418 solution. LNCaP stable cells were plated in two (2) white 96-well plates with 30,000 cells/50 μL in each well. The cells were cultured at 37° C., under 5% CO2 for 24 hours, and then treated with the compounds listed in Examples which were diluted in various concentrations. Subsequently, IL-6 was added to each well with a final concentration of 10 ng/mL. Upon completion of the treatment with the compounds and IL-6, the cells were cultured at 37° C., under 5% CO2 for 24 hours. The plates were observed under microscope and drug precipitation and particular findings were investigated and recorded.
(§1) The luciferase assay and the cell viability assay were performed respectively with one of the two plates. For the luciferase assay, the liquid media in the 96-well plate was removed, and then, 20 μL, of passive cell lysis buffer was added to each well. After shaking the plate for 30 minutes, luciferase activities of each well were measured in a PHERAstar™ microplate reader (BMG LABTECH) using a luciferase assay system (Cat No. E1501, Promega). For the cell viability assay, the 96-well plate was placed at room temperature for 30 minutes, added with 20 μL/well of CellTiter-Glo solution (Cat No. G7573, Promega), and shaken for 10 minutes in order to measure cytotoxicity caused by the compounds listed in Examples with a PHERAstar™ microplate reader (BMG LABTECH). Wells without 0.1% DMSO and stimulation were used as a negative control and wells with 0.1% DMSO and stimulation were used as a positive control.
(§2) The results of evaluation on the inhibitory effect of the compounds listed in the Examples on the dimerization of STAT3 and STAT1 obtained via the STAT3 and STAT1 reporter gene assays are shown in Table 9 below.

STAT1 = STAT1 reporter gene assay (luciferase), U2OS stable cell line pGL4-STAT1-TA-luc, IFN-γ stimulation; assay type: cell-based, human; conditions: IFN-γ 50 ng/mL, 8 hours, read-out: IC50 (μM) pSTAT1
Experimental: 1-2) Experiment on the Inhibition of STAT1 Activity
A human osteosarcoma cell line (U2OS stable cell line; pGL4-STAT1-TA-luc), which contains a stably operating STAT1 promoter, was cultured in McCoy 5′A medium (Cat No. 16600, Life Technologies) containing 10% FBS (Cat No. SH30396, Thermo Scientific) and 1000 μg/mL G418 solution (Cat No. 04 727 894 001, Roche). The reporter gene assay using U2OS stable cell line was performed in McCoy 5′A medium containing 10% FBS without G-418 solution. U2OS stable cells were plated in two (2) white 96-well plates with 25,000 cells/50 pt in each well. The cells were cultured at 37° C., under 5% CO2 for 24 hours, and then treated with the compounds listed in Examples which were diluted in various concentrations. Subsequently, IFN-γ was added to each well with a final concentration of 50 ng/mL. Upon completion of the treatment with the compounds and IFN-γ, the cells were cultured at 37° C., under 5% CO2 for 8 hours. The plates were observed under microscope and drug precipitation and particular findings were investigated and recorded.
as §1, with “of” for “of the”, “μL” for “μL,”
as §2

N-(3-chloro-5-(2-(3-chloro-5-methoxyphenyl)propan-2-yl)phenyl)-5-(2-(methylsulfonyl)propan-2-yl)benzo[b]thiophene-2-carboxamide [Example 55]
IC50 (STAT3): 0.0022 µM | IC50 (STAT1): > 50 µM

CC(C)(c1ccc2sc(C(=O)Nc3cc(Cl)nc(Oc4ccc(Cl)nc4)c3)cc2c1)S(C)(=O)=O [Example 65, N-(2-chloro-6-((6-chloropyridin-3-yl)oxy)pyridin-4-yl)-5-(2-(methylsulfonyl)propan-2-yl)benzo[b]thiophene-2-carboxamide]
IC50 (STAT3; Homo sapiens): 0.079 µM | IC50 (STAT1; Homo sapiens): > 50 µM

CC(C)(c1ccc2cc(C(=O)Nc3cc(Cl)cc(Oc4ccc(Cl)cc4)c3)[nH]c2c1)S(C)(=O)=O [Example 40, N-(3-chloro-5-(4-chlorophenoxy)phenyl)-6-(2-(methylsulfonyl)propan-2-yl)-1H-indole-2-carboxamide]
IC50 (STAT3; Homo sapiens): 0.21 µM | IC50 (STAT1; Homo sapiens): > 50 µM

CC(C)(c1cc2cc(C(=O)Nc3cc(Cl)cc(Oc4ccc(Cl)cc4)c3)sc2cn1)S(C)(=O)=O [Example 50, N-(3-chloro-5-(4-chlorophenoxy)phenyl)-5-(2-(methylsulfonyl)propan-2-yl)thieno[2,3-c]pyridine-2-carboxamide]
IC50 (STAT3; Homo sapiens): 0.078 µM | IC50 (STAT1; Homo sapiens): > 50 µM

CC#Cc1cc(OC(F)(F)F)cc(C(C)(C)c2cc(Cl)cc(NC(=O)c3cc4cc(C(C)(C)S(C)(=O)=O)ccc4s3)c2)c1 [Example 87, N-(3-chloro-5-(2-(3-(prop-1-yn-1-yl)-5-(trifluoromethoxy)phenyl)propan-2-yl)phenyl)-5-(2-(methylsulfonyl)propan-2-yl)benzo[b]thiophene-2-carboxamide]
IC50 (STAT3; Homo sapiens): 0.0097 µM | IC50 (STAT1; Homo sapiens): > 50 µM

CC(C)(c1ccc2sc(C(=O)Nc3cc(Cl)nc(Oc4ccc(Cl)cn4)c3)cc2c1)S(C)(=O)=O [Example 85, N-(2-chloro-6-((5-chloropyridin-2-yl)oxy)pyridin-4-yl)-5-(2-(methylsulfonyl)propan-2-yl)benzo[b]thiophene-2-carboxamide]
IC50 (STAT3; Homo sapiens): 0.11 µM | IC50 (STAT1; Homo sapiens): > 50 µM

COc1cc(OC(F)(F)F)cc(C(C)(C)c2cc(Cl)cc(NC(=O)c3cc4cc(C(C)(C)S(C)(=O)=O)ccc4s3)c2)c1 [Example 7, N-(3-chloro-5-(2-(3-methoxy-5-(trifluoromethoxy)phenyl)propan-2-yl)phenyl)-5-(2-(methylsulfonyl)propan-2-yl)benzo[b]thiophene-2-carboxamide]
IC50 (STAT3; Homo sapiens): 0.0088 µM | IC50 (STAT1; Homo sapiens): > 50 µM

CC(C)(c1cc(Cl)cc(NC(=O)c2cc3cc(C(C)(C)S(C)(=O)=O)ccc3s2)c1)c1cc(OCCN2CCOCC2)cc(OC(F)(F)F)c1 [Example 8, N-(3-chloro-5-(2-(3-(2-morpholinoethoxy)-5-(trifluoromethoxy)phenyl)propan-2-yl)phenyl)-5-(2-(methylsulfonyl)propan-2-yl)benzo[b]thiophene-2-carboxamide]
IC50 (STAT3; Homo sapiens): 0.061 µM | IC50 (STAT1; Homo sapiens): > 50 µM

COC(=O)c1cc(Oc2cc(NC(=O)c3cc4cc(C(C)(C)S(C)(=O)=O)ccc4s3)cc(Cl)n2)no1 [Example 118, methyl 3-((6-chloro-4-(5-(2-(methylsulfonyl)propan-2-yl)benzo[b]thiophene-2-carboxamido)pyridin-2-yl)oxy)isoxazole-5-carboxylate]
IC50 (STAT3; Homo sapiens): 6 µM | IC50 (STAT1; Homo sapiens): 8.6 µM

CCCOc1cc(OC(F)(F)F)cc(C(C)(C)c2cc(Cl)cc(NC(=O)c3cc4cc(C(C)(C)S(C)(=O)=O)ccc4s3)c2)c1 [Example 2, N-(3-chloro-5-(2-(3-propoxy-5-(trifluoromethoxy)phenyl)propan-2-yl)phenyl)-5-(2-(methylsulfonyl)propan-2-yl)benzo[b]thiophene-2-carboxamide]
IC50 (STAT3; Homo sapiens): 0.008 µM | IC50 (STAT1; Homo sapiens): > 50 µM

CCOc1cc(OC(F)(F)F)cc(C(C)(C)c2cc(Cl)cc(NC(=O)c3cc4cc(C(C)(C)S(C)(=O)=O)ccc4s3)c2)c1 [Example 1, N-(3-chloro-5-(2-(3-ethoxy-5-(trifluoromethoxy)phenyl)propan-2-yl)phenyl)-5-(2-(methylsulfonyl)propan-2-yl)benzo[b]thiophene-2-carboxamide]
IC50 (STAT3; Homo sapiens): 0.0076 µM | IC50 (STAT1; Homo sapiens): > 50 µM

COc1cc(OC(F)(F)F)cc(C(C)(C)c2cc(Cl)cc(NC(=O)c3cc4cc(C(C)(C)S(C)(=O)=O)ccc4s3)n2)c1 [Example 91, N-(4-chloro-6-(2-(3-methoxy-5-(trifluoromethoxy)phenyl)propan-2-yl)pyridin-2-yl)-5-(2-(methylsulfonyl)propan-2-yl)benzo[b]thiophene-2-carboxamide]
IC50 (STAT3; Homo sapiens): 0.0051 µM | IC50 (STAT1; Homo sapiens): > 50 µM

CC(C)(c1ccc2sc(C(=O)Nc3cc(Oc4ccc(Cl)cc4)nc(Cl)n3)cc2c1)S(C)(=O)=O [Example 75, N-(2-chloro-6-(4-chlorophenoxy)pyrimidin-4-yl)-5-(2-(methylsulfonyl)propan-2-yl)benzo[b]thiophene-2-carboxamide]
IC50 (STAT3; Homo sapiens): 0.24 µM | IC50 (STAT1; Homo sapiens): > 50 µM

CC(C)(c1ccc2sc(C(=O)Nc3cc(Cl)cc(Oc4ccc(Cl)cn4)c3)cc2c1)S(C)(=O)=O [Example 61, N-(3-chloro-5-((5-chloropyridin-2-yl)oxy)phenyl)-5-(2-(methylsulfonyl)propan-2-yl)benzo[b]thiophene-2-carboxamide]
IC50 (STAT3; Homo sapiens): 0.08 µM | IC50 (STAT1; Homo sapiens): > 50 µM

CC(C)(c1ccc2sc(C(=O)Nc3cc(Oc4ccc(Cl)cc4)cc(N4CCC4)c3)cc2c1)S(C)(=O)=O [Example 59, N-(3-(azetidin-1-yl)-5-(4-chlorophenoxy)phenyl)-5-(2-(methylsulfonyl)propan-2-yl)benzo[b]thiophene-2-carboxamide]
IC50 (STAT3; Homo sapiens): 0.31 µM | IC50 (STAT1; Homo sapiens): > 50 µM

CC(C)(c1ccc(F)cc1)c1cc(Br)cc(NC(=O)c2cc3cc(C(C)(C)S(C)(=O)=O)ccc3s2)c1 [Example 20, N-(3-bromo-5-(2-(4-fluorophenyl)propan-2-yl)phenyl)-5-(2-(methylsulfonyl)propan-2-yl)benzo[b]thiophene-2-carboxamide]
IC50 (STAT3; Homo sapiens): 0.067 µM | IC50 (STAT1; Homo sapiens): > 50 µM

CC(C)c1ccc(C(C)(C)c2cc(Cl)cc(NC(=O)c3cc4cc(C(C)(C)S(C)(=O)=O)ccc4s3)c2)s1 [Example 28, N-(3-chloro-5-(2-(5-isopropylthiophen-2-yl)propan-2-yl)phenyl)-5-(2-(methylsulfonyl)propan-2-yl)benzo[b]thiophene-2-carboxamide]
IC50 (STAT3; Homo sapiens): 0.0085 µM | IC50 (STAT1; Homo sapiens): > 50 µM

CC(C)(c1cc(Cl)cc(NC(=O)c2cc3cc(C(C)(C)S(C)(=O)=O)ccc3s2)c1)c1cc(OC(F)(F)F)cc(OC(F)(F)C(F)F)c1 [Example 5, N-(3-chloro-5-(2-(3-(1,1,2,2-tetrafluoroethoxy)-5-(trifluoromethoxy)phenyl)propan-2-yl)phenyl)-5-(2-(methylsulfonyl)propan-2-yl)benzo[b]thiophene-2-carboxamide]
IC50 (STAT3; Homo sapiens): 0.028 µM | IC50 (STAT1; Homo sapiens): > 50 µM

COc1cc(OC(F)(F)F)cc(C(C)(C)c2cccc(NC(=O)c3cc4cc(C(C)(C)S(C)(=O)=O)ccc4s3)c2)c1 [Example 3, N-(3-(2-(3-methoxy-5-(trifluoromethoxy)phenyl)propan-2-yl)phenyl)-5-(2-(methylsulfonyl)propan-2-yl)benzo[b]thiophene-2-carboxamide]
IC50 (STAT3; Homo sapiens): 0.0098 µM | IC50 (STAT1; Homo sapiens): > 50 µM
